In ChEMBL document CHEMBL3885861, “Open TG-GATES”:

Species: Rattus norvegicus
Assay: Open TG-GATES - Regimen: Daily Repeat
Format: toxicity, organism-based, Sprague-Dawley
Set-up: regimen Daily Repeat, gender Male, age 6 weeks
Details: in vivo, po, 100 mg/kg, route gavage, dose level Middle; for APTT / Bas / Eos / Fbg / Hb / Ht / Lym / MCH / MCHC / MCV / Mono / Neu / PT / Plat / RBC / Ret / WBC: tissue Blood; for KIDNEY_L / KIDNEY_R / KIDNEY_TOTAL: tissue Kidney; for LIVER: tissue Liver; for A/G / ALP / ALT / AST / BUN / CRE / Ca / Cl / DBIL / GLC / IP / K / LDH / Na / PL / RALB / TBIL / TC / TG / TP / gamma-GTP: tissue Plasma

## Clc1c(Cl)c(Cl)c(Cl)c(Cl)c1Cl [PERCHLOROBENZENE]
72 h, time 3 day
  TERMINAL_BW: 223.3 g
  APTT: 15.9 s
  Bas: 0%
  Eos: 1.2%
  Fbg: 221.4 mg/dL
  Hb: 14.1 g/dL
  Ht: 42.1%
  Lym: 73.2%
  MCH: 21.7 pg
  MCHC: 33.5%
  MCV: 64.8 fL
  Mono: 7.4%
  Neu: 18.2%
  PT: 11.2 s
  Plat: 104.2 x10_4/uL
  RBC: 650.6 x10_4/ul
  Ret: 7.5%
  WBC: 113.8 x10_2/uL
  KIDNEY_L: 1 g
  KIDNEY_R: 1 g
  KIDNEY_TOTAL: 2 g
  LIVER: 13.1 g
  A/G: 1.8
  ALP: 823 IU/L
  ALT: 43.4 IU/L
  AST: 65.8 IU/L
  BUN: 16 mg/dL
  CRE: 0.5 mg/dL
  Ca: 10.6 mg/dL
  Cl: 106.2 meq/L
  DBIL: 0.006 mg/dL
  GLC: 194.8 mg/dL
  IP: 8.7 mg/dL
  K: 5.2 meq/L
  LDH: 121.4 IU/L
  Na: 139 meq/L
  PL: 168 mg/dL
  RALB: 3.7 g/dL
  TBIL: 0.4 mg/dL
  TC: 91.8 mg/dL
  TG: 162.4 mg/dL
  TP: 5.8 g/dL
  gamma-GTP: 1.6 IU/L
[…], time 7 day
  TERMINAL_BW: 265.6 g
  APTT: 17.2 s
  Bas: 0%
  Eos: 1.2%
  Fbg: 238.8 mg/dL
  Hb: 14.5 g/dL
  Ht: 43.3%
  Lym: 64.2%
  MCH: 21.3 pg
  MCHC: 33.4%
  MCV: 63.7 fL
  Mono: 14.4%
  Neu: 20.4%
  PT: 11.7 s
  Plat: 115.6 x10_4/uL
  RBC: 680.8 x10_4/ul
  Ret: 5.7%
  WBC: 104 x10_2/uL
  KIDNEY_L: 1.2 g
  KIDNEY_R: 1.2 g
  KIDNEY_TOTAL: 2.3 g
  LIVER: 17.2 g
  A/G: 1.9
  ALP: 631.4 IU/L
  ALT: 33 IU/L
  AST: 59.2 IU/L
  BUN: 17.2 mg/dL
  CRE: 0.7 mg/dL
  Ca: 10.7 mg/dL
  Cl: 104.2 meq/L
  DBIL: 0.01 mg/dL
  GLC: 179.8 mg/dL
  IP: 7.9 mg/dL
  K: 4.9 meq/L
  LDH: 127.8 IU/L
  Na: 137.8 meq/L
  PL: 191.6 mg/dL
  RALB: 3.9 g/dL
  TBIL: 0.5 mg/dL
  TC: 112.4 mg/dL
  TG: 151.6 mg/dL
  TP: 6.1 g/dL
  gamma-GTP: 1.8 IU/L
[…], time 14 day
  TERMINAL_BW: 308.5 g
  APTT: 19.7 s
  Bas: 0%
  Eos: 1%
  Fbg: 263.2 mg/dL
  Hb: 14.5 g/dL
  Ht: 43.3%
  Lym: 77.6%
  MCH: 20.9 pg
  MCHC: 33.6%
  MCV: 62.3 fL
  Mono: 8%
  Neu: 13.6%
  PT: 12.2 s
  Plat: 117.2 x10_4/uL
  RBC: 695 x10_4/ul
  Ret: 4.6%
  WBC: 156.2 x10_2/uL
  KIDNEY_L: 1.3 g
  KIDNEY_R: 1.3 g
  KIDNEY_TOTAL: 2.5 g
  LIVER: 21.6 g
  A/G: 2
  ALP: 470.8 IU/L
  ALT: 30.2 IU/L
  AST: 54.2 IU/L
  BUN: 17 mg/dL
  CRE: 0.6 mg/dL
  Ca: 10.4 mg/dL
  Cl: 106.6 meq/L
  DBIL: 0.014 mg/dL
  GLC: 171.2 mg/dL
  IP: 7.8 mg/dL
  K: 4.9 meq/L
  LDH: 102.2 IU/L
  Na: 140.2 meq/L
  PL: 192.6 mg/dL
  RALB: 4.4 g/dL
  TBIL: 0.5 mg/dL
  TC: 115.2 mg/dL
  TG: 145.2 mg/dL
  TP: 6.6 g/dL
  gamma-GTP: 2.8 IU/L
[…], time 28 day
  TERMINAL_BW: 338.7 g
  APTT: 23.8 s
  Bas: 0%
  Eos: 2.2%
  Fbg: 320.6 mg/dL
  Hb: 15.3 g/dL
  Ht: 46%
  Lym: 65%
  MCH: 19.7 pg
  MCHC: 33.2%
  MCV: 59.4 fL
  Mono: 15.4%
  Neu: 17.8%
  PT: 15.8 s
  Plat: 100.2 x10_4/uL
  RBC: 774.8 x10_4/ul
  Ret: 3%
  WBC: 182.8 x10_2/uL
  KIDNEY_L: 1.5 g
  KIDNEY_R: 1.5 g
  KIDNEY_TOTAL: 2.9 g
  LIVER: 29.5 g
  A/G: 1.6
  ALP: 316.6 IU/L
  ALT: 50.4 IU/L
  AST: 48.8 IU/L
  BUN: 21.8 mg/dL
  CRE: 0.7 mg/dL
  Ca: 11.2 mg/dL
  Cl: 105.6 meq/L
  DBIL: 0.014 mg/dL
  GLC: 159.6 mg/dL
  IP: 9.2 mg/dL
  K: 5.3 meq/L
  LDH: 157.4 IU/L
  Na: 143.4 meq/L
  PL: 193 mg/dL
  RALB: 4.6 g/dL
  TBIL: 0.3 mg/dL
  TC: 120.2 mg/dL
  TG: 116.2 mg/dL
  TP: 7.6 g/dL
  gamma-GTP: 11.4 IU/L
